Measured values published in patent US11566018B2, “Treatment of infectious disease” (The Governors of the University of Alberta, priority 2018, dated 2023).

Columns and labels:
MTT cell viability assay = assay type: cell-based, human; settings: human; 1HAEo- cells, dose response; read-out: CC50 (cytotoxic concentration at which cell viability is reduced by half)
Method: (§1) MTT cell viability assay. 1HAEo-cells were grown in parallel with infected and compound treated cells in SAR and dose response experiments. 0.3 mg/mL of MTT ((3-(4,5-dimethylthiazol-2-yl)-2,5-diphenyl tetrazolium bromide)) in PBS was added to wells and incubated for 1 hour. Precipitate was dissolved in DMSO and absorbance was measured at 570 nm.

RSV-GFP-A2 = test: Mutant escape assay (serial passage); assay type: cell-based, human RSV strain A2; settings: 14 serial passages over five weeks, 1HAEo- cells
Method: Mutant escape assay. 1HAEo-cells were infected with RSV-GFP-A2 at an initial MOI of 0.1 and serial passaged over incubation periods of 48-72 hours. Samples were collected during passaging and stored in liquid nitrogen for tittering via indirect immunofluorescence assay. Ongoing low level viral infection during passaging was confirmed by identification of green fluorescence from GFP produced by the RSV-GFP in infected cells.
An established challenge to development of antiviral pharmaceuticals is the evolution of antiviral resistance. This is pronounced for viruses with RNA genome due to an inherent error-prone process of RNA-dependent RNA polymerase replication of a viral genome. Error prone replication results in a high mutation rate of RNA viruses that leads to development of antiviral resistance. As such, development of resistant mutants to compounds 5a and 5f was undertaken, as the site of mutations could provide further insights into the nature of the viral target.

1HAEo- cells = test: MTT cell viability assay; assay type: cell-based, human; settings: compounds at 10 μM, SAR screens
Method: as §1

RSV-A2-GFP [1] = test: Dose response experiments, progeny virus titered on HeLa cells; assay type: cell-based, human RSV strain A2; settings: 1HAEo- cells
Method: Dose response experiments. 1HAEo-cells were infected as described, progeny virus collected, and tittered on HeLa cells in duplicate as described in SAR 2. During initial infection in 1HAEo-cells infectious media was replaced with media containing compounds at indicated concentrations at 2 hours post infection. Proportion of virus infected cells were quantified via indirect immunofluorescence assay.
To further assess the therapeutic potential of compounds identified in SAR 1 and SAR 2, a therapeutic index (TI) of each compound was identified (e.g., ratio of […]). […] Overall, the TI was increased from 4.1 for compound 5a to 12.3 with compound 5f.

ZIKV (Cambodia strain) = test: Zika Virus antiviral screen (plaque assay); assay type: cell-based; settings: 10 μM, progeny virus quantified on Vero cells by plaque assay, n=3
Method: (§2) Cells and virus. Hep-2 cells were grown in Opti-MEM media supplemented with 2% fetal bovine serum (FBS), 1HAEo-cells were grown in MEM media supplemented with 10% FBS, and Hela cells grown in DMEM supplemented with 10% FBS. Infections were conducted using human RSV strain A2 or RSV-A2-GFP strain described previously [Hallak, L. K.; Spillmann, D.; Collins, P. L.; Peeples, M. E. J. Virol. 2000, 74, 10508-10513]. A549 cells and Vero cells were grown in DMEM supplemented with 10% FBS and used for experiments with ZIKV (Cambodia strain).
Zika Virus antiviral screen. Vero cells were pre-treated with bis(indole) compounds at 10 μM for 4 hours before infection with ZIKV at an MOI of 1. After 48 hour infection progeny ZIKV was collected, serial diluted over 6 logs, and transferred onto fresh Vero cell monolayers and incubated for 4 days. Vero cell monolayers were then fixed with 10% formaldehyde and stained with crystal violet; viral infection was quantified via plaque assay.
ZIKV constitutes a virus distinct from RSV with a markedly different intracellular replication strategy. Both viruses encode a viral RdRp essential to viral replication; however, the structure and function of RSV RdRp and ZIKV RdRp are quite different. […] RSV polymerase recognizes cis-acting ‘gene start’ and ‘gene end’ elements of the viral genome to produce subgenomic mRNAs enabling translation of viral proteins. […]

[2] = biological target: T1, RSV viral replication complex (Human respiratory syncytial virus A, UniProt P28887); test: Cell extract-based in vitro inhibition of viral transcription; assay type: biochemical, RSV A2
T1 construct: endogenous in cells; crude lysolecithin cell extract
T1 sequence (P28887 whole entry): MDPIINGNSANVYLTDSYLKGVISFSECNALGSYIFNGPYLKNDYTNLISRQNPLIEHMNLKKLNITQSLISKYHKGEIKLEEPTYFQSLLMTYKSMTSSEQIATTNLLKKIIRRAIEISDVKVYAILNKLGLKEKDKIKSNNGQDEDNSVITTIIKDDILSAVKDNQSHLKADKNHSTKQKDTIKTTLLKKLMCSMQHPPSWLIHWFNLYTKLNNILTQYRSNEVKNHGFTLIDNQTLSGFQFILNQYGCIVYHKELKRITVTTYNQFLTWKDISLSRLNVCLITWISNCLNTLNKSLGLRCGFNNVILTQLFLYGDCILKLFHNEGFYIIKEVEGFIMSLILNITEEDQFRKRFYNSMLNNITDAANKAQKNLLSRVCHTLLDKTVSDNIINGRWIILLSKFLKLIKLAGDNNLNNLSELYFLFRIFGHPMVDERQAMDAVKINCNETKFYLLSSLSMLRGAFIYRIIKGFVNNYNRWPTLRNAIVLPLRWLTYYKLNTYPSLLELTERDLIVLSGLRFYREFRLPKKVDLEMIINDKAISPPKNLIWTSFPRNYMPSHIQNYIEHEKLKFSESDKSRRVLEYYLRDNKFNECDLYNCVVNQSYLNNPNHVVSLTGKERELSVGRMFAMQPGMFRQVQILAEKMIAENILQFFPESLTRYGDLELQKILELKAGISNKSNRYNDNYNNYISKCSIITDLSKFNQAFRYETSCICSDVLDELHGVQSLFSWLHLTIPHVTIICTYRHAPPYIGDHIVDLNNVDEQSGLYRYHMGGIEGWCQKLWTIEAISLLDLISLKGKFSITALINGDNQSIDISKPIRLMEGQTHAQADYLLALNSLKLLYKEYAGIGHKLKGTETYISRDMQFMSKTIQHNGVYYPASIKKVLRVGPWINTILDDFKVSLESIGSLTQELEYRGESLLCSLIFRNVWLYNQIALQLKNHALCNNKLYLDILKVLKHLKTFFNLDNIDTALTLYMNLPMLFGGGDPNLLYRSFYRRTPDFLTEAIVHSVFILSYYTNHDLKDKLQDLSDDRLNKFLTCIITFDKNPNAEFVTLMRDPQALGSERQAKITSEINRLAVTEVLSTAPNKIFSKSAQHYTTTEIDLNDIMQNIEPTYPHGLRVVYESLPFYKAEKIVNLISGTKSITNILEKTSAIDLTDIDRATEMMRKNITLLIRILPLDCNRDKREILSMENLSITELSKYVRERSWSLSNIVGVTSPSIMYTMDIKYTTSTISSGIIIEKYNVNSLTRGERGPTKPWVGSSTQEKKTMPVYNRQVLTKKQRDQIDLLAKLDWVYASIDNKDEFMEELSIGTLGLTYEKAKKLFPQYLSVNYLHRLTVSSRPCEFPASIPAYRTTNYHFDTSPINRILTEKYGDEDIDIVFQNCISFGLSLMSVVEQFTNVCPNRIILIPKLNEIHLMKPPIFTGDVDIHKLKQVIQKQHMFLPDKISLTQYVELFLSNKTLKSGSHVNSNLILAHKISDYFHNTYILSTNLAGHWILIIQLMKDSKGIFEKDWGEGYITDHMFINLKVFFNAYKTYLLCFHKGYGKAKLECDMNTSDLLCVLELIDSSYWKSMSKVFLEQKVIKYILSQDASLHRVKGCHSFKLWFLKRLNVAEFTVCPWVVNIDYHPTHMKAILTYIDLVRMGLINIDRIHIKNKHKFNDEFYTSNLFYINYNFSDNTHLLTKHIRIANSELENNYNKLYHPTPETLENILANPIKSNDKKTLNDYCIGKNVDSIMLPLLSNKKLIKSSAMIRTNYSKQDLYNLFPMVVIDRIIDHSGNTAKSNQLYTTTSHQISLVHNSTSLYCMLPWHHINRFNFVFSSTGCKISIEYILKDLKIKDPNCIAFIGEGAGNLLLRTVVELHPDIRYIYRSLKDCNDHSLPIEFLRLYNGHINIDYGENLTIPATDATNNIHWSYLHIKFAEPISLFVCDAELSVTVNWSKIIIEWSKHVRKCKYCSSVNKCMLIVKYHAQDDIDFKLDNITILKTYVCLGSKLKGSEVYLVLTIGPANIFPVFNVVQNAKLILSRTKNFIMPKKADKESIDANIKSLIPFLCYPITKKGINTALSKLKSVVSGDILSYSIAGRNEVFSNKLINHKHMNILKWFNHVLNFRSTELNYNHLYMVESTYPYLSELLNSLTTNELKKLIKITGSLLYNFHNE
T1 sequence (P03421 whole entry, further chain): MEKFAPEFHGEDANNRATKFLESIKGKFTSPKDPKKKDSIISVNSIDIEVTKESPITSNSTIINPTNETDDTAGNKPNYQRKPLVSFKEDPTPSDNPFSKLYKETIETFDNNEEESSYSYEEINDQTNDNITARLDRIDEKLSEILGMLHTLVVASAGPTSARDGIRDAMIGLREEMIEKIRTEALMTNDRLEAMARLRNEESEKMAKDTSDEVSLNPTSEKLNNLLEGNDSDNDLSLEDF

RSV-A2-GFP [3] = test: Structure activity relationship screens of antiviral activity (SAR 1/SAR 2); progeny virus by indirect immunofluorescence; assay type: cell-based, human RSV strain A2; settings: compounds at 10 μM, 1HAEo- cells, progeny virus on HeLa indicator cells
Method: as §2
Structure activity relationship screens of antiviral activity. 1HAEo-cells were seeded at 80% confluency and incubated overnight. In SAR1 cells were preincubated with compounds for one hour at 20 μM prior to infection, followed by dilution to 10 μM and infection with RSV-A2-GFP at an MOI of 1 for 2 hours. In SAR2 1HAEo-cells were infected with RSV-A2-GFP at an MOI of 0.5 for 2 hours without pre-incubation with compounds. At 2 hours post infection, infectious media was removed from wells to prevent carry over of infecting virus into progeny collections. Fresh media containing compounds at 10 μM was added for remainder of 48 hour incubation. […]
Progeny virus quantification via indirect immunofluorescence. […] Total cells (identified by DAPI staining) and infected cells were counted via the Operetta high content imaging system at 20x objective magnification. […]

| Structure (SMILES) | CC50 (MTT cell viability assay) [µM] | development of resistant virus (RSV-GFP-A2) | cytotoxicity (cell viability) (1HAEo- cells) | viral replication at concentrations tolerated by the host cell (RSV-A2-GFP [1]) | inhibition of ZIKV infection (ZIKV (Cambodia strain)) | viral transcription from the RSV replication complex [2] | antiviral activity (inhibition of RSV infection) (RSV-A2-GFP [3]) |
| --- | --- | --- | --- | --- | --- | --- | --- |
| COC(=O)C1(c2c(-c3ccc(OC)cc3)[nH]c3ccccc23)Nc2cc(Cl)ccc2C1=O (stereo not shown) [Compound 5b] | 59.2 | – | – | – | – | – | – |
| COC(=O)C1(c2c(-c3ccc(OC)cc3)[nH]c3ccccc23)Nc2cc(Br)ccc2C1=O (stereo not shown) [Compound 5f] | 93.5 | did not result in the development of viruses resistant to either compound | – | – | – | – | – |
| COC(=O)C1(c2cn(C)c3ccccc23)Nc2cc(Cl)ccc2C1=O (stereo not shown) [Compound 2p] | 22.8 | – | demonstrated cytotoxicity in SAR 1 | viral replication was not diminished at compound concentrations tolerated by the host cell | – | – | – |
| COC(=O)C1(c2c(-c3ccccc3)[nH]c3ccccc23)Nc2cc(Cl)ccc2C1=O (stereo not shown) [Compound 5a] | 42.5 | did not result in the development of viruses resistant to either compound | no cytotoxicity | consistently inhibited viral replication at concentrations tolerated by the host cell | Significant inhibition | Decreasing viral transcription from the RSV replication complex was observed in a dose dependent manner | comparable to that of the known antiviral guanosine-analogue drug ribavirin |
